Reference: patent US6340689B1 (priority 1999, dated 2002)
≈ marks a conversion by molar mass, not a printed value.

What was measured:
[1] = tested on: L. pneumophila serogroup 1; assay: microbe, parasite or virus in culture; format: cell-based, Legionella pneumophila; details: Legionella pneumophila; for MIC: 48 h, read-out: MIC Range; for MIC90: L. pneumophila serogroup 1 (n = 85)
[2] = tested on: L. pneumophila serogroup 2; assay: microbe, parasite or virus in culture; format: cell-based; details: Legionella pneumophila; for MIC: 48 h, read-out: MIC Range
[3] = tested on: L. pneumophila serogroup 3; assay: microbe, parasite or virus in culture; format: cell-based; details: Legionella pneumophila; for MIC: 48 h, read-out: MIC Range
[4] = tested on: L. pneumophila serogroup 4; assay: microbe, parasite or virus in culture; format: cell-based; details: Legionella pneumophila; for MIC: 48 h, read-out: MIC Range
[5] = tested on: L. pneumophila serogroup 5; assay: microbe, parasite or virus in culture; format: cell-based; details: Legionella pneumophila; for MIC: 48 h, read-out: MIC Range
[6] = tested on: L. pneumophila serogroup 6; assay: microbe, parasite or virus in culture; format: cell-based; details: Legionella pneumophila; for MIC: 48 h, read-out: MIC Range
[7] = tested on: L. pneumophila serogroup 7; assay: microbe, parasite or virus in culture; format: cell-based; details: Legionella pneumophila; for MIC: 48 h, read-out: MIC Range
[8] = tested on: L. pneumophila serogroup 8, 9; assay: microbe, parasite or virus in culture; format: cell-based; details: Legionella pneumophila; for MIC: 48 h, read-out: MIC Range
L. dumoffii = assay: organism not typed; format: cell-based; details: for MIC: 48 h, read-out: MIC Range
L. micadadei = assay: organism not typed; format: cell-based, L. micdadei; details: for MIC: 48 h, read-out: MIC Range
L. longbeacheae = assay: organism not typed; format: cell-based; details: for MIC: 48 h, read-out: MIC Range
Other Legionella spp. = assay: microbe, parasite or virus in culture; format: cell-based; details: for MIC: 48 h, read-out: MIC Range
[9] = tested on: Erythromycin-susceptible L. pneumophila; format: cell-based, Legionella pneumophila; details: Erythromycin-susceptible L. pneumophila (n = 15); 4 × MIC; mean ± SD
[10] = tested on: Erythromycin-susceptible Legionella spp. other than L. pneumophila; format: cell-based; details: Erythromycin-susceptible Legionella spp. (n = 13); 4 × MIC; mean ± SD
[11] = tested on: isolates of Legionella pneumophila and other Legionella spp.; assay: microbe, parasite or virus in culture; format: cell-based

SMILES	MIC50 [1]	MIC [1]	MIC90 [1]	MIC50 [2]	MIC90 [2]	MIC [2]	MIC50 [3]	MIC90 [3]	MIC [3]	MIC50 [4]	MIC90 [4]	MIC [4]	MIC50 [5]	MIC90 [5]	MIC [5]	MIC50 [6]	MIC90 [6]	MIC [6]	MIC50 [7]	MIC90 [7]	also measured
CC1COc2c(N3CCN(C)CC3)c(F)cc3c(=O)c(C(=O)O)cn1c23 (stereo not shown) [Ofloxacin]	0.03 µg/mL (≈ 0.083 µM)	0.008 to 0.03 µg/mL (≈ 0.0221 to 0.083 µM)	0.03 µg/mL (≈ 0.083 µM)	0.016 µg/mL (≈ 0.0443 µM)	0.03 µg/mL (≈ 0.083 µM)	0.008 to 0.03 µg/mL (≈ 0.0221 to 0.083 µM)	0.016 µg/mL (≈ 0.0443 µM)	0.03 µg/mL (≈ 0.083 µM)	0.016 to 0.03 µg/mL (≈ 0.0443 to 0.083 µM)	0.03 µg/mL (≈ 0.083 µM)	0.03 µg/mL (≈ 0.083 µM)	0.008 to 0.03 µg/mL (≈ 0.0221 to 0.083 µM)	0.016 µg/mL (≈ 0.0443 µM)	0.03 µg/mL (≈ 0.083 µM)	0.008 to 0.03 µg/mL (≈ 0.0221 to 0.083 µM)	0.03 µg/mL (≈ 0.083 µM)	0.03 µg/mL (≈ 0.083 µM)	0.008 to 0.03 µg/mL (≈ 0.0221 to 0.083 µM)	0.03 µg/mL (≈ 0.083 µM)	0.03 µg/mL (≈ 0.083 µM)	MIC [7]: 0.03 µg/mL (≈ 0.083 µM); MIC50 [8]: 0.03 µg/mL (≈ 0.083 µM); MIC90 [8]: 0.03 µg/mL (≈ 0.083 µM); MIC [8]: 0.03 µg/mL (≈ 0.083 µM); MIC50 (L. dumoffii): 0.03 µg/mL (≈ 0.083 µM); MIC90 (L. dumoffii): 0.03 µg/mL (≈ 0.083 µM); MIC (L. dumoffii): 0.03 µg/mL (≈ 0.083 µM); MIC50 (L. micadadei): 0.03 µg/mL (≈ 0.083 µM); MIC90 (L. micadadei): 0.03 µg/mL (≈ 0.083 µM); MICs fold more active than erythromycin (L. micadadei): 5 fold; MIC (L. micadadei): 0.03 µg/mL (≈ 0.083 µM); MIC50 (L. longbeacheae): 0.03 µg/mL (≈ 0.083 µM); MIC90 (L. longbeacheae): 0.03 µg/mL (≈ 0.083 µM); MIC (L. longbeacheae): 0.016 to 0.03 µg/mL (≈ 0.0443 to 0.083 µM); MIC50 (Other Legionella spp.): 0.016 µg/mL (≈ 0.0443 µM); MIC90 (Other Legionella spp.): 0.06 µg/mL (≈ 0.166 µM); MIC (Other Legionella spp.): 0.004 to 0.06 µg/mL (≈ 0.0111 to 0.166 µM); Mean PAE [9]: 3.53 ± 3 h; Mean PAE [10]: 3.04 ± 2 h; MIC90 [11]: 0.03 µg/mL (≈ 0.083 µM)
C[C@H]1COc2c(N3CCN(C)CC3)c(F)cc3c(=O)c(C(=O)O)cn1c23 [Levofloxacin]	0.016 µg/mL (≈ 0.0443 µM)	0.004 to 0.016 µg/mL (≈ 0.0111 to 0.0443 µM)	0.016 µg/mL (≈ 0.0443 µM)	0.008 µg/mL (≈ 0.0221 µM)	0.008 µg/mL (≈ 0.0221 µM)	0.004 to 0.016 µg/mL (≈ 0.0111 to 0.0443 µM)	0.008 µg/mL (≈ 0.0221 µM)	0.016 µg/mL (≈ 0.0443 µM)	0.008 to 0.016 µg/mL (≈ 0.0221 to 0.0443 µM)	0.016 µg/mL (≈ 0.0443 µM)	0.016 µg/mL (≈ 0.0443 µM)	0.004 to 0.016 µg/mL (≈ 0.0111 to 0.0443 µM)	0.008 µg/mL (≈ 0.0221 µM)	0.016 µg/mL (≈ 0.0443 µM)	0.004 to 0.016 µg/mL (≈ 0.0111 to 0.0443 µM)	0.008 µg/mL (≈ 0.0221 µM)	0.016 µg/mL (≈ 0.0443 µM)	0.008 to 0.016 µg/mL (≈ 0.0221 to 0.0443 µM)	0.008 µg/mL (≈ 0.0221 µM)	0.016 µg/mL (≈ 0.0443 µM)	MIC [7]: 0.008 to 0.016 µg/mL (≈ 0.0221 to 0.0443 µM); MIC50 [8]: 0.008 µg/mL (≈ 0.0221 µM); MIC90 [8]: 0.016 µg/mL (≈ 0.0443 µM); MIC [8]: 0.008 to 0.016 µg/mL (≈ 0.0221 to 0.0443 µM); MIC50 (L. dumoffii): 0.016 µg/mL (≈ 0.0443 µM); MIC90 (L. dumoffii): 0.016 µg/mL (≈ 0.0443 µM); MIC (L. dumoffii): 0.016 µg/mL (≈ 0.0443 µM); MIC50 (L. micadadei): 0.016 µg/mL (≈ 0.0443 µM); MIC90 (L. micadadei): 0.016 µg/mL (≈ 0.0443 µM); MIC (L. micadadei): 0.008 to 0.016 µg/mL (≈ 0.0221 to 0.0443 µM); MIC50 (L. longbeacheae): 0.016 µg/mL (≈ 0.0443 µM); MIC90 (L. longbeacheae): 0.016 µg/mL (≈ 0.0443 µM); MIC (L. longbeacheae): 0.008 to 0.016 µg/mL (≈ 0.0221 to 0.0443 µM); MIC50 (Other Legionella spp.): 0.016 µg/mL (≈ 0.0443 µM); MIC90 (Other Legionella spp.): 0.016 µg/mL (≈ 0.0443 µM); MIC (Other Legionella spp.): 0.008 to 0.06 µg/mL (≈ 0.0221 to 0.166 µM); Mean PAE [9]: 2.14 ± 2 h; Mean PAE [10]: 1.35 ± 1 h; MIC90 [11]: 0.016 µg/mL (≈ 0.0443 µM)
